Consider 1 compound from patent US20260184726A1, “HETEROCYCLIC COMPOUNDS AS KINASE INHIBITORS, COMPOSITIONS, AND METHODS OF USE THEREOF” (JS INNOMED HOLDINGS LTD., priority 2022, published 2026).

One assay relates to BAF3 cells. Description: BAF3 Cell Proliferation Assay (CellTiter-Glo, without RET driven, IL-3). It is filed as cell-based. The note with it: Mus musculus; growth inhibition in BAF3 cells, 72 hours, with IL-3; read-out: BAF3 Cellular Activity. In outline:
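BAF3 cells in RPMI-1640 with 10% FBS and 1 ng/ml IL-3, seeded 2,000/well and settled 24 h at 37 °C, then exposed to compound at final 10 μM down to 0.0015 μM (0.1% DMSO) for 72 h. Viability by CellTiter-Glo luminescence versus DMSO controls; IC50 from curve fit.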
On the technique in general: Cellular ATP, detected with luciferase, serves as a proxy for viable cell number.

A further assay has as its target T1, human RET kinase (Homo sapiens, UniProt P07949).
T1 construct: purchased Carna 08-159
Description: RET Kinase Assay (mobility shift assay, ATP at Km). It is filed as biochemical. The note with it: 23 μM ATP (Km), read-out: RET Enzymatic Activity. A digest of the protocol:
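Human RET (7 nM) pre-incubated with compound 15 min at room temperature in 50 mM HEPES pH 7.5, 0.0015% Brij-35; reaction with 3 μM FAM-P2 peptide and 23 μM ATP (Km) 1 h at 28° C, EDTA-stopped. Mobility shift read; IC50 from sigmoid fit of percent of 2% DMSO control.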

T1 sequence (P07949 29-1114): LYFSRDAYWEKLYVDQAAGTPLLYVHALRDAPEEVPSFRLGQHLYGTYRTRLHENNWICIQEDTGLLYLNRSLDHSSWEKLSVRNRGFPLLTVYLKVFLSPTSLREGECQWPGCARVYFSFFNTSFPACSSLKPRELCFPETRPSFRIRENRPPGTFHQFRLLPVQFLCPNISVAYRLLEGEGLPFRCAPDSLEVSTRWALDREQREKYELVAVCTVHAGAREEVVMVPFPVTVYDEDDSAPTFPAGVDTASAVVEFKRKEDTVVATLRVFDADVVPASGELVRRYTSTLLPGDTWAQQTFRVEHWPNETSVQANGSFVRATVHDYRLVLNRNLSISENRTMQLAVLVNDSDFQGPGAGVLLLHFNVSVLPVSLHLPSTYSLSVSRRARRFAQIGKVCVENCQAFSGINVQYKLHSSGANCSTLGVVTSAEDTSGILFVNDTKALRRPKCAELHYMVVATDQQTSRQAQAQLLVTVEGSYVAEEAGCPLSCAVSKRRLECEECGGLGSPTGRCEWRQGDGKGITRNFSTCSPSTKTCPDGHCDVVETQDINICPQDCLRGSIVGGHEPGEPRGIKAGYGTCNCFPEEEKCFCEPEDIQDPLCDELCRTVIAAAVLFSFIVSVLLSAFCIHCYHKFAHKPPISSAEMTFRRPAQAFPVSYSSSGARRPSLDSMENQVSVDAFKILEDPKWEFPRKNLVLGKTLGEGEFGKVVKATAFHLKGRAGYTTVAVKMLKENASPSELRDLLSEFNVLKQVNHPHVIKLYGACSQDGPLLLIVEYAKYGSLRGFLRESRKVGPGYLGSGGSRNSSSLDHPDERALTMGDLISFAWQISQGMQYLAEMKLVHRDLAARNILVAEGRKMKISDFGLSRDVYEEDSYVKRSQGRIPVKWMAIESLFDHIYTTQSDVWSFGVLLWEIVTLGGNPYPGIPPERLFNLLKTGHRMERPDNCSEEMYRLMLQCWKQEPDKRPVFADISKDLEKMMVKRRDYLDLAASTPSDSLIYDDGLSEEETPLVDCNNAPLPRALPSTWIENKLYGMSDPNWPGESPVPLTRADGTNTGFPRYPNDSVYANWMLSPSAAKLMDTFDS

For the compound `COc1ccc(CN2C3CC2CN(c2ccc(-c4cc(-c5ccc(C(C)(C)NC(C)=O)cn5)cn5ncc(C#N)c45)cn2)C3)cn1` [Example 12, N-(2-(6-(3-cyano-4-(6-(6-((6-methoxypyridin-3-yl)methyl)-3,6-diazabicyclo[3.1.1]heptan-3-yl)pyridin-3-yl)pyrazolo[1,5-a]pyridin-6-yl)pyridin-3-yl)propan-2-yl)acetamide], the IC50 with BAF3 cells was found to be 1050 nM; at human RET kinase, 0.4 nM.
